Source: patent publication US11744816B2, “Fixed dose combinations and formulations comprising ETC1002 and ezetimibe and methods of treating or reducing the risk of cardiovascular disease” (Esperion Therapeutics, Inc., priority 2015, dated 2023)
Entries after “also recorded” stand apart in the source; their conditions may differ.

Key:
[1] = tested on: hypercholesterolemic patients; test: Phase 2b double-blind trial: safety, treatment-emergent adverse events and laboratory abnormalities; details: for Most common AEs: ALT increased / Most common AEs: AST increased / Most common AEs: Arthralgia / Most common AEs: Back pain / Most common AEs: Blood CK increased / Most common AEs: Constipation / Most common AEs: Headache / Most common AEs: Myalgia / Most common AEs: Nasopharyngitis / Most common AEs: Upper respiratory tract infection / Most common AEs: Urinary tract infection / Treatment-emergent AEs: Any AE(s) / Treatment-emergent AEs: Discontinuation due to AE(s) / Treatment-emergent AEs: Serious AE(s) / Treatment-emergent AEs: Study drug-related AE(s) / Any muscle-related AE / Muscle-related AE leading to discontinuation / Muscle-related AEs: Muscle spasms / Muscle-related AEs: Muscular weakness / Muscle-related AEs: Musculoskeletal chest pain / Muscle-related AEs: Musculoskeletal stiffness / Muscle-related AEs: Myalgia / Muscle-related AEs: Pain in extremity / Muscle-related AEs: Sensation of heaviness / Muscle-related AEs: Musculoskeletal pain: 12 weeks; for Most common AEs: ALT increased / Most common AEs: AST increased / Most common AEs: Arthralgia / Most common AEs: Back pain / Most common AEs: Blood CK increased / Most common AEs: Constipation / Most common AEs: Headache / Most common AEs: Myalgia / Most common AEs: Nasopharyngitis / Most common AEs: Upper respiratory tract infection / Most common AEs: Urinary tract infection / Treatment-emergent AEs: Any AE(s) / Treatment-emergent AEs: Discontinuation due to AE(s) / Treatment-emergent AEs: Serious AE(s) / Treatment-emergent AEs: Study drug-related AE(s): safety population; for Myalgia, patients affected: entire study population
Protocol: The study population included both statin-tolerant and statin-intolerant participants. Statin intolerance was defined as the inability to tolerate ≥2 statins because of muscle-related symptoms such as pain, weakness, or cramping that began or increased during statin therapy and resolved on statin discontinuation. At least 1 statin must have been administered at the lowest approved daily dose, defined as rosuvastatin 5 mg, atorvastatin 10 mg, simvastatin 10 mg, lovastatin 20 mg, pravastatin 40 mg, fluvastatin 40 mg, or pitavastatin 2 mg. Treatment with less than the lowest approved daily dose of a statin (i.e., skipping days) was considered equivalent to not tolerating 1 statin at the lowest approved daily dose.
Patients underwent a 5-week washout of all lipid-regulating drugs and dietary supplements and abstained from these drugs and supplements throughout the study. Patients also underwent a 5-week patient-only-blinded placebo run-in during the screening period (week −5 to week 0). This single-blind placebo run-in period was used to eliminate patients with muscle-related AEs during placebo treatment. Patients reporting new or worsening, unexplained muscle-related AEs during this run-in period were excluded from the study.
Patients were stratified (1:1) by history of statin intolerance and randomized at week 0 in a 4:4:4:1:1 ratio to once-daily treatment with capsules containing ETC-1002 120 mg, ETC-1002 180 mg, EZE, ETC-1002 120 mg plus EZE, or ETC-1002 180 mg plus EZE.
The safety of ETC-1002 was assessed using treatment-emergent AEs; hematology, serum chemistry, and urinalysis laboratory values; physical examination findings, vital sign measurements, electrocardiogram (ECG) readings; weight; and ankle and waist circumference measurements. AEs were coded using the Medical Dictionary for Regulatory Activities version 16.0 and evaluated by the investigator for severity and relation to study drug. Muscle-related AEs were defined as those from the system organ class of musculoskeletal and connective tissue disorders, except for those that were not obviously muscle related Terms included in the muscle-related AFE analysis were selected from this system organ class after database lock and before unblinding.
Safety analyses were performed on the safety population, which included randomized patients who received at least 1 dose of study drug. Baseline patient characteristics were summarized for the safety population by treatment group and statin-tolerance subgroup.
Muscle-related AEs also were summarized by statin-tolerance subgroup.

[2] = tested on: hypercholesterolemic patients; test: Phase 2b double-blind trial: percent changes from baseline to week 12 in lipids and CRP; type: in vivo, human; details: for Percent change from baseline to week 12 in Apolipoprotein A-I / Percent change from baseline to week 12 in Apolipoprotein B / Percent change from baseline to week 12 in HDL particle number / Percent change from baseline to week 12 in HDL-C / Percent change from baseline to week 12 in LDL particle number / Percent change from baseline to week 12 in LDL-C / Percent change from baseline to week 12 in Non-HDL-C / Percent change from baseline to week 12 in Total cholesterol / Percent change from baseline to week 12 in VLDL particle number: 12 weeks, mITT; for Percent change from baseline to week 12 in Apolipoprotein A-I / Percent change from baseline to week 12 in Apolipoprotein B / Percent change from baseline to week 12 in HDL particle number / Percent change from baseline to week 12 in HDL-C / Percent change from baseline to week 12 in LDL particle number / Percent change from baseline to week 12 in LDL-C / Percent change from baseline to week 12 in Non-HDL-C / Percent change from baseline to week 12 in Total cholesterol: LS mean ± SE; for Percent change from baseline to week 12 in VLDL particle number: median (interquartile range)
Protocol: LDL-C was calculated using the Friedewald equation.
The primary endpoint was the percent change from baseline to week 12 in calculated LDL-C in patients treated with ETC-1002 monotherapy versus those treated with EZE alone. Secondary endpoints included the dose-response relationship between ETC-1002 and the percent change in LDL-C from baseline to week 12, the percent change in LDL-C from baseline to week 12 in patients treated with ETC-1002 plus EZE versus those treated with EZE alone, and the percent change from baseline to week 12 for all treatment groups in LDL particle number, apolipoprotein B, total cholesterol, non-high-density lipoprotein cholesterol (non-HDL-C), HDL-C, HDL particle number, apolipoprotein A-I, triglycerides, very-low-density lipoprotein (VLDL) particle number, and high-sensitivity C-reactive protein (CRP). Lipoprotein particle number was measured using nuclear magnetic resonance […].
An analysis of covariance was used to compare each ETC-1002 treatment group with EZE monotherapy for each of the efficacy endpoints. The primary model included the effects of treatment and statin intolerance and the baseline value as a covariate. Baseline was defined as the mean of values from weeks −1 and 0 for LDL-C, non-HDL-C, total cholesterol, HDL-C, and triglycerides. For all other lipid and biomarker measures, baseline was defined as the last value before the first dose of study drug. Missing values at week 12 were imputed using the last-observation-carried-forward procedure. When LDL-C could not be calculated (i.e., triglycerides >400 mg/dL), beta-quantification measurements were used to determine LDL-C values. Least-squares (LS) means and standard errors were obtained for each treatment group; differences in LS means and p-values were obtained for the treatment comparisons. Graphical methods (e.g., normal probability plot and histogram of residuals, plot of residuals vs. predicted values) or analytical methods (e.g., Shapiro-Wilk test), or both, were used to assess the model assumptions. Because of departures from normality observed in the parameters of triglycerides, CRP, and VLDL particle number, nonparametric analyses were performed for these measures, with p-values obtained from the Wilcoxon rank-sum test and median values presented.
Percent changes from baseline in LDL-C also were summarized by statin-tolerance subgroup. To assess the dose-response relationship for ETC-1002 monotherapy, the primary analysis of covariance model was used for the comparison of the ETC-1002 120 mg and ETC-1002 180 mg. Statistical testing of the efficacy endpoints was 2-sided and conducted at the 5% level of significance with no adjustment for multiple comparisons.

[3] = ETC-1002 120 mg once daily, statin-intolerant patients
[4] = ETC-1002 120 mg once daily, statin-tolerant patients
[5] = ETC-1002 180 mg once daily, statin-intolerant patients
[6] = ETC-1002 180 mg once daily, statin-tolerant patients

CC(C)(CCCCCC(O)CCCCCC(C)(C)C(=O)O)C(=O)O [ETC-1002, 8-hydroxy-2,2,14,14 tetramethylpentadecanedioic acid]
Alanine aminotransferase or aspartate aminotransferase, or both, increased >3 times the upper limit of normal at any measurement ([1]; ETC-1002 120 mg): 1 patients
Serious AEs reported (events) ([1]; ETC-1002 120 mg): hemothorax; also recorded: sudden death
Most common AEs: ALT increased ([1]; ETC-1002 120 mg once daily): 0 n (%)
Most common AEs: AST increased ([1]; ETC-1002 120 mg once daily): 0 n (%)
Most common AEs: Arthralgia ([1]; ETC-1002 120 mg once daily): 4 (4%) n (%)
Most common AEs: Back pain ([1]; ETC-1002 120 mg once daily): 1 (1%) n (%)
Most common AEs: Blood CK increased ([1]; ETC-1002 120 mg once daily): 1 (1%) n (%)
Most common AEs: Constipation ([1]; ETC-1002 120 mg once daily): 3 (3%) n (%)
Most common AEs: Headache ([1]; ETC-1002 120 mg once daily): 3 (3%) n (%)
Most common AEs: Myalgia ([1]; ETC-1002 120 mg once daily): 3 (3%) n (%)
Most common AEs: Nasopharyngitis ([1]; ETC-1002 120 mg once daily): 3 (3%) n (%)
Most common AEs: Upper respiratory tract infection ([1]; ETC-1002 120 mg once daily): 6 (6%) n (%)
Most common AEs: Urinary tract infection ([1]; ETC-1002 120 mg once daily): 0 n (%)
Treatment-emergent AEs: Any AE(s) ([1]; ETC-1002 120 mg once daily): 50 (51%) n (%)
Treatment-emergent AEs: Discontinuation due to AE(s) ([1]; ETC-1002 120 mg once daily): 3 (3%) n (%)
Treatment-emergent AEs: Serious AE(s) ([1]; ETC-1002 120 mg once daily): 2 (2%) n (%)
Treatment-emergent AEs: Study drug-related AE(s) ([1]; ETC-1002 120 mg once daily): 13 (13%) n (%)
Any muscle-related AE [1, 3]: 7 (14%) n (%)
Muscle-related AE leading to discontinuation [1, 3]: 1 (2%) n (%)
Muscle-related AEs: Muscle spasms [1, 3]: 3 (6%) n (%)
Muscle-related AEs: Muscular weakness [1, 3]: 2 (4%) n (%)
Muscle-related AEs: Musculoskeletal chest pain [1, 3]: 0 n (%)
Muscle-related AEs: Musculoskeletal stiffness [1, 3]: 0 n (%)
Muscle-related AEs: Myalgia [1, 3]: 2 (4%) n (%)
Muscle-related AEs: Pain in extremity [1, 3]: 1 (2%) n (%)
Muscle-related AEs: Sensation of heaviness [1, 3]: 0 n (%)
Any muscle-related AE [1, 4]: 1 (2%) n (%)
Muscle-related AE leading to discontinuation [1, 4]: 0 n (%)
Muscle-related AEs: Muscle spasms [1, 4]: 0 n (%)
Muscle-related AEs: Musculoskeletal pain [1, 4]: 0 n (%)
Muscle-related AEs: Myalgia [1, 4]: 1 (2%) n (%)
Myalgia, patients affected ([1]; ETC-1002 120 mg): 3%
Alanine aminotransferase or aspartate aminotransferase, or both, increased >3 times the upper limit of normal at any measurement ([1]; ETC-1002 180 mg): 2 patients
Serious AEs reported (events) ([1]; ETC-1002 180 mg): pancreatitis relapse
Most common AEs: ALT increased ([1]; ETC-1002 180 mg once daily): 0 n (%)
Most common AEs: AST increased ([1]; ETC-1002 180 mg once daily): 0 n (%)
Most common AEs: Arthralgia ([1]; ETC-1002 180 mg once daily): 1 (1%) n (%)
Most common AEs: Back pain ([1]; ETC-1002 180 mg once daily): 1 (1%) n (%)
Most common AEs: Blood CK increased ([1]; ETC-1002 180 mg once daily): 4 (4%) n (%)
Most common AEs: Constipation ([1]; ETC-1002 180 mg once daily): 1 (1%) n (%)
Most common AEs: Headache ([1]; ETC-1002 180 mg once daily): 2 (2%) n (%)
Most common AEs: Myalgia ([1]; ETC-1002 180 mg once daily): 1 (1%) n (%)
Most common AEs: Nasopharyngitis ([1]; ETC-1002 180 mg once daily): 5 (5%) n (%)
Most common AEs: Upper respiratory tract infection ([1]; ETC-1002 180 mg once daily): 6 (6%) n (%)
Most common AEs: Urinary tract infection ([1]; ETC-1002 180 mg once daily): 4 (4%) n (%)
Treatment-emergent AEs: Any AE(s) ([1]; ETC-1002 180 mg once daily): 55 (55%) n (%)
Treatment-emergent AEs: Discontinuation due to AE(s) ([1]; ETC-1002 180 mg once daily): 6 (6%) n (%)
Treatment-emergent AEs: Serious AE(s) ([1]; ETC-1002 180 mg once daily): 1 (1%) n (%)
Treatment-emergent AEs: Study drug-related AE(s) ([1]; ETC-1002 180 mg once daily): 18 (18%) n (%)
Any muscle-related AE [1, 5]: 6 (12%) n (%)
Muscle-related AE leading to discontinuation [1, 5]: 2 (4%) n (%)
Muscle-related AEs: Muscle spasms [1, 5]: 2 (4%) n (%)
Muscle-related AEs: Muscular weakness [1, 5]: 1 (2%) n (%)
Muscle-related AEs: Musculoskeletal chest pain [1, 5]: 1 (2%) n (%)
Muscle-related AEs: Musculoskeletal stiffness [1, 5]: 0 n (%)
Muscle-related AEs: Myalgia [1, 5]: 1 (2%) n (%)
Muscle-related AEs: Pain in extremity [1, 5]: 1 (2%) n (%)
Muscle-related AEs: Sensation of heaviness [1, 5]: 0 n (%)
Any muscle-related AE [1, 6]: 0 n (%)
Muscle-related AE leading to discontinuation [1, 6]: 0 n (%)
Muscle-related AEs: Muscle spasms [1, 6]: 0 n (%)
Muscle-related AEs: Musculoskeletal pain [1, 6]: 0 n (%)
Muscle-related AEs: Myalgia [1, 6]: 0 n (%)
Myalgia, patients affected ([1]; ETC-1002 180 mg): 1%
Decrease in median CRP from baseline to week 12 endpoint ([2]; ETC-1002 120 mg): 30%
LDL-C reduction from baseline to week 12 ([2]; ETC-1002 120 mg alone): 27%
Percent change from baseline to week 12 in Apolipoprotein A-I ([2]; ETC-1002 120 mg once daily): −0.2 ± 1.1%
Percent change from baseline to week 12 in Apolipoprotein B ([2]; ETC-1002 120 mg once daily): −19.3 ± 1.3 %
Percent change from baseline to week 12 in HDL particle number ([2]; ETC-1002 120 mg once daily): 5.0 ± 1.3%
Percent change from baseline to week 12 in HDL-C ([2]; ETC-1002 120 mg once daily): −5.8 ± 1.4 %
Percent change from baseline to week 12 in LDL particle number ([2]; ETC-1002 120 mg once daily): −21.8 ± 1.7 %
Percent change from baseline to week 12 in LDL-C ([2]; ETC-1002 120 mg once daily): −27.5 ± 1.3 %
Percent change from baseline to week 12 in Non-HDL-C ([2]; ETC-1002 120 mg once daily): −23.2 ± 1.2 %
Percent change from baseline to week 12 in Total cholesterol ([2]; ETC-1002 120 mg once daily): −19.3 ± 0.9 %
Percent change from baseline to week 12 in VLDL particle number ([2]; ETC-1002 120 mg once daily): −2.7 (68.5) %
Decrease in median CRP from baseline to week 12 endpoint ([2]; ETC-1002 180 mg): 40%
LDL-C reduction from baseline to week 12 ([2]; ETC-1002 180 mg alone): 30%
Percent change from baseline to week 12 in Apolipoprotein A-I ([2]; ETC-1002 180 mg once daily): 0.1 ± 1.2%
Percent change from baseline to week 12 in Apolipoprotein B ([2]; ETC-1002 180 mg once daily): −21.3 ± 1.3 %
Percent change from baseline to week 12 in HDL particle number ([2]; ETC-1002 180 mg once daily): 6.2 ± 1.4%
Percent change from baseline to week 12 in HDL-C ([2]; ETC-1002 180 mg once daily): −4.8 ± 1.4 %
Percent change from baseline to week 12 in LDL particle number ([2]; ETC-1002 180 mg once daily): −24.6 ± 1.8 %
Percent change from baseline to week 12 in LDL-C ([2]; ETC-1002 180 mg once daily): −30.1 ± 1.3 %
Percent change from baseline to week 12 in Non-HDL-C ([2]; ETC-1002 180 mg once daily): −25.3 ± 1.1 %
Percent change from baseline to week 12 in Total cholesterol ([2]; ETC-1002 180 mg once daily): −20.7 ± 0.9 %
Percent change from baseline to week 12 in VLDL particle number ([2]; ETC-1002 180 mg once daily): 15.3 (80.5) %
LDL-C reduction from baseline to week 12 ([2]; ETC-1002 alone (120 mg or 180 mg), up to): up to 30%
